# Molecular target: T1, Calpain-1 catalytic subunit (Homo sapiens, UniProt P07384)
# T1 sequence (P07384 whole entry): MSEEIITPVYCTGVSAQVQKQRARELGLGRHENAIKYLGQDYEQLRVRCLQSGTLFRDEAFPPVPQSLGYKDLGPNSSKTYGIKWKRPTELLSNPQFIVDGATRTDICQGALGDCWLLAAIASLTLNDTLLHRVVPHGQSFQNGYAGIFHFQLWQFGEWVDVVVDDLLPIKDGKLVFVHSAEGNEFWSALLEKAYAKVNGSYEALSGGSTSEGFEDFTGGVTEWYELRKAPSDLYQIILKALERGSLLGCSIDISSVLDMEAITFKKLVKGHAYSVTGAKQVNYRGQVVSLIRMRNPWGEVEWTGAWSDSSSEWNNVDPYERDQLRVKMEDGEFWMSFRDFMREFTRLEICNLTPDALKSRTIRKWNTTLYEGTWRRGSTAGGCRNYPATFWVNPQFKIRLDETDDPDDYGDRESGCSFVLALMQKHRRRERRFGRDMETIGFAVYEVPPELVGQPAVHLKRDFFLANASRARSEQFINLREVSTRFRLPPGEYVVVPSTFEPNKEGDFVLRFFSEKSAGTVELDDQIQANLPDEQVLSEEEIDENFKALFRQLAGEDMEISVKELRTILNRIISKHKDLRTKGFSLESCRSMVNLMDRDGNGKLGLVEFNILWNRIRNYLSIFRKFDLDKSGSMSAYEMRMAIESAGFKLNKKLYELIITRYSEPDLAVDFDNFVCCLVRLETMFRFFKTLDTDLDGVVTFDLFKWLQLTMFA
# Assay: (§1) Inhibitory activity of compound against recombinant human Calpain 1
row,IC50 [nM],Compound
1,138,CC(C)C[C@H](CC(=O)CCCCc1ccccc1)C(=O)N[C@H](C=O)CC(C)C
2,240,CCNC(=O)C(=O)C(CC)NC(=O)[C@H](CC(C)C)NC(=O)OCc1ccccc1 (stereo partly specified)
3,50,CC(C)C[C@H](CC(=O)C(c1ccccc1)c1ccccc1)C(=O)N[C@H](C=O)CC(C)C
4,130,CCNC(=O)C(CC(C)C)NC(=O)[C@@H](CC(=O)C1c2ccccc2Oc2ccccc21)CC(C)C (stereo partly specified)
5,25,CC(C)C[C@H](CC(=O)C1c2ccccc2Oc2ccccc21)C(=O)N[C@H](C=O)CC(C)C

# Molecular target: T2, Calpain-1 catalytic subunit (Homo sapiens) (UniProt P07384)
# T2 sequence (whole entry): T1 sequence (P07384 whole entry)
# Assay: as §1
row,K obs / 1 [M⁻¹ s⁻¹],Compound
1,76000,CC(C)C[C@H](CC(=O)C1c2ccccc2Oc2ccccc21)C(=O)NC(Cc1ccccc1)C(=O)CF (stereo partly specified)

# Reference: ChEMBL document CHEMBL1151519, “Xanthene derived potent nonpeptidic inhibitors of recombinant human calpain I” (Bioorg Med Chem Lett, 1996)
